From patent US11667630B2, “Nitrogen-containing 6-membered cyclic compound” (Asahi Kasei Pharma Corporation, priority 2017, dated 2023) come the findings set out here.

The assay concerns the target human EP4 receptor (Homo sapiens, UniProt P35408). Description: Measurement of EP4 agonist activity (cAMP production). Set-up: expressed in transfected cells; host or cells: HEK293. The settings on record: cAMP production in HEK293 cells stably expressing human EP4 receptor; average values where measured two or more times. Format: cell-based. Here is the method:
In order to investigate EP4 receptor agonist activity of the compounds of the present invention, production of cAMP was measured in HEK293 cells that were made to stably express the human EP4 receptor.
By using Refseq Database, prostaglandin E receptor was searched for. As a result, gene information of human EP4 (NM_000958) receptor was obtained. On the basis of this sequence information, the human EP4 receptor gene was cloned by PCR in a conventional manner using human cDNA as the template, and HEK293 cells that were made to stably express the human EP4 receptor were established. When cryopreserved cells of this strain were thawed and used, cells subcultured three times or more within a certain period of time (about 1 to 2 weeks) by using Dulbecco's Modified Eagle's Medium (Dulbecco's Modified Eagle's Medium may be henceforth abbreviated as DMEM) containing 10% FBS, 50 units each of penicillin and streptomycin were used. The subcultured cells were inoculated in wells of a poly-D-lysine-coated 96-well plate at a density of 2×10^4 to 2.5×10^4 cells/well, and cultured for one day. The medium in the wells was removed by suction, then DMEM (80 μL) was added to each well, and incubation was performed at 37° C. for 15 minutes. […] The reaction was allowed at 37° C. for 30 minutes, then the medium was removed by suction, Assay/Lysis Buffer (100 μL) contained in cAMP Screen Kit (produced by Applied Biosystems) was added to terminate the reaction. Then, the reaction mixture was incubated at 37° C. for 30 minutes to prepare a sample for quantification of cAMP, and the amount of cAMP in the sample was quantified according to the method indicated in cAMP Screen Kit. By non-linear regression of the compound concentration and the amount of cAMP, the concentration of the compound required for increasing cAMP to 50% of the maximum increase (EC50 value) was calculated by using the Kaleida Graph.
(In general: cAMP levels reflect the balance of adenylyl cyclase and phosphodiesterase activity.)

Chain of human EP4 receptor (P35408 whole entry): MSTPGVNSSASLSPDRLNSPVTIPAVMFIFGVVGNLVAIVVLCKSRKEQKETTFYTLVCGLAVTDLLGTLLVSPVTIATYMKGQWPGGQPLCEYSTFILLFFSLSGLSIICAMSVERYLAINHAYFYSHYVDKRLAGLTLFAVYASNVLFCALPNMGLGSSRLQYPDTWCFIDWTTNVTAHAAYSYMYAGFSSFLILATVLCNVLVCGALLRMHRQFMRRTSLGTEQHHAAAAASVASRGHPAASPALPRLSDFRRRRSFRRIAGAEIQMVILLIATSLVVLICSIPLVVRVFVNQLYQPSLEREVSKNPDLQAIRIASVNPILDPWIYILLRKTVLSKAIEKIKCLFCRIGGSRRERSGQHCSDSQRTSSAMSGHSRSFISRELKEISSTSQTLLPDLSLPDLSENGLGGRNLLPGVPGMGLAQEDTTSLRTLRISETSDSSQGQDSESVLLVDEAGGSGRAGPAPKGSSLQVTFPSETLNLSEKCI

In turn, `O=C(O)c1ccc(CCN2C(=O)SCCN2CC[C@@H](O)Cc2cccc(C#Cc3ccsc3)c2)s1` [Example 23, (S)-5-(2-(4-(3-Hydroxy-4-(3-(thiophen-3-ylethynyl)phenyl)butyl)-2-oxo-1,3,4-thiadiazinan-3-yl)ethyl)thiophene-2-carboxylic acid] gave an EC50 of 33 pM. This lies in the picomolar range.

The EC50 is the midpoint of the concentration-response curve. Low values mean a more potent agent, high ones a less potent agent.
